Test results published in patent US20230033849A1, “CBD SUNSCREEN FORMULATIONS AND USES THEREOF” (JUPITER WELLNESS, INC., priority 2021, published 2023).

Tests used:
[1] = test system: Human primary epidermal melanocytes (ATCC PCS200-013); assay: MTT cell viability assay of melanocytes after UVB irradiation; assay type: cell-based; conditions: Melanocyte, light or radiation study, approximately 60 mJ/cm^2, 0 μM control 16%, read-out: viability after UV irradiation
Description: (§1) Human primary epidermal melanocytes (ATCC PCS200-013) and keratinocytes (ATCC PCS 200-011) cell-lines were cultured using serum free complete growth media (ATCC PCS 200-030). Cells were cultured at 37 C.° with 5% CO2. Cells were grown to 80% confluence before being washed with PBS buffer (37° C.) and trypsinized with EDTA-trypsin. A small aliquot of cells was stained with Trypan blue and counted using a haemocytometer. The remaining cells were plated in a 24 well plate with 300 uL of complete growth media (ATCC) for UV experimentation. Approximately 27*10^3 cells were added to each well. Twenty-four hours after inoculation, individual wells were treated with one of three different concentrations of CBD isolate (CBD Brands, Jupiter, Fla.) or left untreated (control). The concentrations of CBD used were 1 μM, 4 μM and 8 μM, respectively.
After CBD treatment for 1 hour, all cells were washed and with chilled (4° C.) PBS buffer. UV exposure experiments were conducted in chilled PBS buffer to avoid heat stress. Cells were irradiated with UVB light (Dermalight 80, UVB lamp). The distance of the lamp to the wells of the plate was kept constant at 3 cm. Exposure times were determined prior to the experiment, empirically, by exposing different wells to increasing UV exposure time and next conducting an MTT assay. […] The chosen exposure time was based on the exposure time that led to greater than 40% cell viability versus untreated cells determined by MTT assay. CBD treated cells were exposed to UV light for this predetermined time of 10 seconds (approximately 60 mJ/cm^2). After exposure the effect of CBD on cell viability was evaluated by an MTT assay. Control cells were cultured in parallel with no CBD treatment, but underwent UVB irradiation.

[2] = test system: Human primary epidermal keratinocytes (ATCC PCS 200-011); assay: MTT cell viability assay of keratinocytes after UVB irradiation; assay type: cell-based; conditions: CBD 1 μM, 4 μM and 8 μM for 1 hour before UVB, 10 seconds (approximately 60 mJ/cm^2), cells not treated with CBD 17%
Description: as §1
After CBD treatment for 1 hour, all cells were washed and with chilled (4° C.) PBS buffer. […] Exposure times were determined prior to the experiment, empirically, by exposing different wells to increasing UV exposure time and next conducting an MTT assay. […] The chosen exposure time was based on the exposure time that led to greater than 40% cell viability versus untreated cells determined by MTT assay. […] After exposure the effect of CBD on cell viability was evaluated by an MTT assay. […]

Compound: C=C(C)[C@@H]1CCC(C)=C[C@H]1c1c(O)cc(CCCCC)cc1O [CBD, cannabidiol]
- viability at 1 µM ([1]; 1 μM CBD for 1 hour before UVB): 48%
- viability at 4 µM ([1]; 4 μM CBD for 1 hour before UVB): 65%
- viability at 8 µM ([1]; 8 μM CBD for 1 hour before UVB): 12%
- cell viability after irradiation with UVB [2]: dose dependent increase in cell viability
